The subject of one data set is A549 cells. In words: In vitro anti-proliferation (CellTiter-Glo, 72 hr), A549. The class given is cell-based, human. As for the experimental part:
(§1) Commercially available 8HQ and freshly synthesized G2-8HQ were prepared for in vitro anti-proliferative studies against the following cell lines with and without the presence of 10 μM Cu(+2): (1) A549: […]; (2) BT-549: epithelial cells from ductal tumor; (3) DU-145: human prostate cancer; (4) PANC-1: pancreatic cancer; (5) SU.86.86: a new adoptive pancreatic cell for immunotherapy studies; (6) RL: non-Hodgkin's lymphoma; (7) LnCAP, Prostate cancer cell line; (8) A431, a squamous cell carcinoma line; and (9) UACC-62 a malignant melanoma cell line.
(§2) With regard to the study protocol used, the objective was to conduct a study of the cytotoxicity of W1469 against several cancer cell lines. In the study protocol, preparations for the A549 (Lung) cell line screen are given as an example. The following materials were used: (1) FBS (2) RPMI-1640 medium supplemented with 10% FBS:’ and (3) A549 Cells. The four samples tested are referred to as Items 1-4 below and were placed at 4 °C upon arrival. These four samples were as follows: • Item 1: Tube A (W1469) (500 uM when FBS added) • Item 2: Tube B (W1469g) (1000 uM when FBS added) • Item 3: Tube C (W1469) • Item 4: Tube D (W1469g)
Items 1 and 2 are sterile ready for the addition of 1 ml of sterile FBS. Final concentrations after addition of 1 ml: 500 μM for Tube A and 1000 μM for Tube B. Items 3 and 4 are described further below. In the protocol, media containing 10% FBS and 20 μM CuCl2 are used in Tubes C and D only. A and B are serially diluted in media with 10% FBS and no added copper.
The protocol method proceeds as follows:
Seed 2, 96-well plates of A549 cells with 5,000 cells per well in a total volume of 50 μL per well. Leave overnight. See plate layout below for which wells to seed with 100 μL of media for media control. The following day, cells are exposed to compounds as described below.
For Items 1 & 2, to make the 500 μM and 1000 μM Stocks of samples 1 and 2 (W1469 and W1469g): Add 1 ml of sterile FBS to each Tube A and Tube B, swirl to mix.
To make appropriate 2× final dilutions of sample 1, Tube A (W1469), the following amounts are used: • 500 μM: 10 mL as supplied • 100 μM: 2 mL 500 μM Sample+8 mL media • 30 μM: 3 mL 100 μM Sample+7 mL media • 10 μM: 3 mL 30 μM Sample+6 mL media • 3 μM: 3 mL 10 μM Sample+7 mL media • 1 μM: 3 mL 3 μM Sample+6 mL media • 0.3 μM: 3 mL 1 μM Sample+7 mL media • 0.1 μM: 3 mL 0.3 μM Sample+6 mL media
To make appropriate 2× final dilutions of sample 2, Tube B (W1469g), the following amounts are used: • 1000 μM: 10 mL as supplied • 300 μM: 3 mL 1000 μM Sample+7 mL media • 100 μM: 3 mL 300 μM Sample+6 mL media • 30 μM: 3 mL 100 μM Sample+7 mL media • 10 μM: 3 mL 30 μM Sample+6 mL media • 3 μM: 3 mL 10 μM Sample+7 mL media • 1 μM: 3 mL 3 μM Sample+6 mL media • 0.3 μM: 3 mL 1 μM Sample+7 mL media
For Items 3 & 4, the following protocol was used to make 1000 uM Stocks of samples 3 and 4 (W1469 and W1469g): • 1: Dissolve 3.37 mg W1469 and excipient (Tube C) in 1 ml RPMI medium without added FBS and copper and swirl briefly until completely dissolved. Add 9 ml of RPMI media containing 10% FBS and 20 uM copper. Swirl to mix. Sterile filter the 10 ml with provided syringes and filters. This is now the 1000 μM stock solution W1469 ready for screening • 2: Dissolve 3.2 mg W1469g and excipient (Tube D) in 1 ml RPMI medium without added FBS and copper and swirl briefly until completely dissolved. […] This is now the 1000 μM stock solution W1469g ready for screening. […]
(In general: ATP-based viability assays read luminescence as a measure of living cells.)

The test system of the next data set is SU.86.86 cells. Put plainly: In vitro anti-proliferation (CellTiter-Glo, 72 hr), SU.86.86. The class given is cell-based. As for the experimental part: as §1, §2
(§3) Add 50 μL of above 2× stocks to appropriate wells to expose appropriate cells to the final dilutions of samples. Add 50 μL media to media and cell control wells and 50 μL media mix to vehicle control wells. Cells are exposed for 72 hr. Following a 72 hr exposure to Sample, perform a CTG assay on all remaining plates.
(§4) At the end of the 72 hr exposure period, remove plates for CellTiter-Glo assay from 37 °C, 5% CO2 incubator and place on the bench at room temperature for 30 mins. Add 100 μL CellTiter-Glo reagent, mix for 2 mins, followed by a further 10 min incubation at room temperature. Record luminescence. Tables showing the resulting plate layouts are included below/

The next data set relates to A431 cells. Put plainly: In vitro anti-proliferation (CellTiter-Glo, 72 hr), A431. The class given is cell-based. As for the experimental part: as §1, §2, §3, §4
The other cancer cell lines tested gave similar results. […] Three additional cell lines were also studied and described more completely in Example 9 provided herein. These cell lines included cytotoxicity testing of WT1469 (G2-8HQ) against LnCAP a prostate cancer, A431 a squamous carcinoma cell line and UACC-62 a malignant melanoma cell line. All were complexed in situ with copper immediately prior to testing. The results from these additional cell lines and incorporated in Table 2 and Example 9.

Another data set concerns cancer cell lines. In words: Anti-proliferative activity against cancer cell lines (overall statements). The class given is cell-based. As for the experimental part: as §1, §2, §3, §4
Another data set in a line: Chemical stability. In kind it is physicochemical.
The nature of the next data set: Complexation of copper. In kind it is physicochemical.
Setting [1] is: 1 and 0.5 μM, presence of Cu^+2 ions, wide standard deviation.

Each structure is given as a SMILES string. Entries after “also recorded” stand apart in the source; their conditions may differ. Read-outs that look alike come from different tables or passages of the source.

Results on one molecule are retold here after patent US20260345654A1, “2,8-DIHYDROXYQUINOLINE GLUCURONIDE DERIVATIVES WITH ENHANCED PROPERTIES FOR USE AS ANTICANCER, ANTIVIRAL, ANTIMICROBIAL, AND OTHER THERAPEUTIC APPLICATIONS” (priority 2023, published 2026).

`O=C(O)[C@H]1O[C@@H](Oc2ccc3cccc(O)c3n2)[C@H](O)[C@@H](O)[C@@H]1O` [G2-8HQ, 8-Hydroxy-2-quinolinyl beta-D-glucopyranosiduronic acid]: the cytotoxicity result with A549 cells (setting [1]) was “in some percentage of the screens all the cancer cells were killed at these concentrations”; in the data set on SU.86.86 cells (setting [1]), “in a percentage of cases, all of the cancer cells were killed at concentrations between at 1 and 0.5 μM; also recorded: in some % of the screens all the cancer cells were killed at these concentrations”; in the data set on cancer cell lines (absence of copper) it was “absence of cytotoxicity (no measurable IC50 in standard drug concentration ranges)”. Also, the “improvement of cytotoxicity in presence of copper” value with A549 cells (A549, 10 or 20 μM Cu^+2 vs −Cu) is 8-18 fold. The IC50 (in general, the point on the concentration scale where inhibition reaches its midpoint) in the data set with A549 cells (Homo sapiens, A549, 72 h, −Cu, 72 hr) was over 500 µM; with SU.86.86 cells (+Cu (10 μM), 72 hr, G2-8HQ values based on MW of apo form (337), read-out: IC50) it was 13 µM; in the data set with SU.86.86 cells (Homo sapiens, SU.86.86, 72 h, +Cu (10 μM), 72 hr, G2-8HQ values based on MW of apo form (337), read-out: IC50), 10 µM; in the data set on SU.86.86 cells (Homo sapiens, SU.86.86, 72 h, −Cu, 72 hr, read-out: IC50), over 500 µM; with SU.86.86 cells (Homo sapiens, SU.86.86, complexed with Cu, multiplied by 337/776=0.43, column 3 duplicate of column 2, read-out: IC50 (adjusted to MW of copper complex)) it was 4.3 µM; in the data set with SU.86.86 cells (complexed with Cu, multiplied by 337/776=0.43, column 3 duplicate of column 2, listed as W1469, read-out: IC50 (adjusted to MW of copper complex)), 5.6 µM. For the same molecule, the IC50 was 85 µM in the data set on A431 cells (+Cu, complexed in situ with copper immediately prior to testing, not based on apo MW, read-out: IC50); 64 µM in the data set on A431 cells (Homo sapiens, A-431, +Cu, complexed in situ with copper immediately prior to testing, not based on apo MW, read-out: IC50); 63.2 µM with A431 cells (Homo sapiens, A-431, complexed with Cu in situ, * differences with or without excipient, suboptimal complexing, read-out: IC50 (adjusted to MW of copper complex)); 83.4 µM in the data set on A431 cells (complexed with Cu in situ, * differences with or without excipient, suboptimal complexing, listed as W1469, read-out: IC50 (adjusted to MW of copper complex)); over 500 µM in the data set on cancer cell lines (without copper, six of the nine carcinoma cell lines). Moreover, the anticancer activity result in the data set with cancer cell lines (all cell lines tested) is listed as “powerful anticancer activity against all cell lines tested”. In addition, the “Active w/o Cu (cancer)” value in the data set on cancer cell lines (comparison Table 5) was “No”. Moreover, the stability result in the data set “Chemical stability” (aqueous solutions, pH values lower than 8, or over time in organic solvents) was “less stable”; in “Chemical stability” (dissolving in DMSO (without copper)), “yields over time the precipitated degradation product of the keto form of 2-8HQ”; in the data set “Chemical stability” (neutral or physiological pH in the plasma) it was “chemically stable”; in “Chemical stability” (pH of 5) it was “degrade the compound almost immediately”. In addition, the Complexes w/copper entry in “Complexation of copper” (comparison Table 5) is reported as “Yes”. Also, the copper complexation entry in “Complexation of copper” (water or PBS (at neutral pH), without suitable excipient) was “will not readily complex Cu^+2”.
